{
  "source": "patent US8183201B2",
  "about": "(priority 2006, dated 2012)",
  "key": {"[1]": {"test_system": "VEGF-induced angiogenesis", "parameters": "species or system C57BL/6 mice", "conditions": "mouse, in vivo"}, "Leptin": {"target": "T1, Leptin (Homo sapiens, UniProt P48357)", "T1 construct": "MDS Pharma services, Taipei, Taiwan (contract assay)", "T1 sequence (P48357 22-1165)": "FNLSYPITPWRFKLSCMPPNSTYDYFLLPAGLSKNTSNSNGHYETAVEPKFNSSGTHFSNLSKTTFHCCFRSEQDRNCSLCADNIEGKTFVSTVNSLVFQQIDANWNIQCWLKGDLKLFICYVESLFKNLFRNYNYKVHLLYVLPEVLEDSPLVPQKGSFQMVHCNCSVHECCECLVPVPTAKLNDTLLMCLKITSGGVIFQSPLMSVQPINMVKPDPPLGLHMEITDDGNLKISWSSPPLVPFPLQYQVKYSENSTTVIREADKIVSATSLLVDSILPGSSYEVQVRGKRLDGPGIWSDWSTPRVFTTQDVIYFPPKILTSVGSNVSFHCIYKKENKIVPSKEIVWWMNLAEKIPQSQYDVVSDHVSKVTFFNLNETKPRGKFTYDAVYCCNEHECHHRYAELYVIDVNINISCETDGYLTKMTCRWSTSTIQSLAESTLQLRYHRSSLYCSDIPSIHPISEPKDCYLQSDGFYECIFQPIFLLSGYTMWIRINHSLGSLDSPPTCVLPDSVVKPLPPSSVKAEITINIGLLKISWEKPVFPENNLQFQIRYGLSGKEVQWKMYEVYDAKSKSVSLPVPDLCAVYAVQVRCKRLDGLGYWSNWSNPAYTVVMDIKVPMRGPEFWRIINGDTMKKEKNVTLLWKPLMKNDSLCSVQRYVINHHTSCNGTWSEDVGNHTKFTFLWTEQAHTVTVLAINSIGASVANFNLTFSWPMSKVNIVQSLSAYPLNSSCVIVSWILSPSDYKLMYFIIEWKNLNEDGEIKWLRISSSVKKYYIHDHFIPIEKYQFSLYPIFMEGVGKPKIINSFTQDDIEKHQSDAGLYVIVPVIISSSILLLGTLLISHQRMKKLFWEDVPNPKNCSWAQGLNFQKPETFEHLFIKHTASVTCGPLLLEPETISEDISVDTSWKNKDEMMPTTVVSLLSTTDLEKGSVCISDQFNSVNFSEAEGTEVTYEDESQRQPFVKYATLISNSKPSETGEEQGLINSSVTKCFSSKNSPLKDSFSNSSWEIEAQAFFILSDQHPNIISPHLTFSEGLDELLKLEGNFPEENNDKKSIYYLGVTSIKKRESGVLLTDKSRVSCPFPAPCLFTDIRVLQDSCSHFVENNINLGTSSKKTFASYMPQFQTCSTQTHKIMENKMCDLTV", "format": "binding"}, "[2]": {"test_system": "human breast cancer MDA-MB-231 cells", "conditions": "mouse, in vivo"}},
  "data": [
    {"substance": "RD: rhodostomin variant having a RGD motif variant ^48PRLDMP^53, SEQ ID NO: 36", "values": [
      {"measurement": "hemoglobin content in MATRIGEL plugs", "setting": "[1]", "result": "reduced hemoglobin content"},
      {"measurement": "inhibition of angiogenesis in MATRIGEL plug", "setting": "[1]", "result": "effective in inhibiting angiogenesis"},
      {"measurement": "Inhibition, Leptin", "setting": "Leptin", "result": 1, "unit": "%"},
      {"measurement": "MDA-MB-231-induced tumor growth in bone", "setting": "[2]", "result": "inhibited MDA-MB-231-induced increase in tumor growth in bone"},
      {"measurement": "blood counts of RBC, WBC and platelet", "setting": "[2]", "result": "did not affect the blood counts of RBC, WBC and platelet"},
      {"measurement": "tumor-induced hypercalcemia", "setting": "[2]", "result": "prevented"},
      {"measurement": "tumor-induced increase in osteoclast activity", "setting": "[2]", "result": "prevented the tumor-induced increase in osteoclast activity"}
    ]}
  ]
}
